For the assay, the target named is T1, horse liver alcohol dehydrogenase (Equus caballus, UniProt P00327).
T1 construct: 0.5 mL horse liver-alcohol dehydrogenase solution (Sigma-1 mg/mL); purchased Sigma; host or cells: horse liver
T1 sequence (P00327 2-375 limits assumed): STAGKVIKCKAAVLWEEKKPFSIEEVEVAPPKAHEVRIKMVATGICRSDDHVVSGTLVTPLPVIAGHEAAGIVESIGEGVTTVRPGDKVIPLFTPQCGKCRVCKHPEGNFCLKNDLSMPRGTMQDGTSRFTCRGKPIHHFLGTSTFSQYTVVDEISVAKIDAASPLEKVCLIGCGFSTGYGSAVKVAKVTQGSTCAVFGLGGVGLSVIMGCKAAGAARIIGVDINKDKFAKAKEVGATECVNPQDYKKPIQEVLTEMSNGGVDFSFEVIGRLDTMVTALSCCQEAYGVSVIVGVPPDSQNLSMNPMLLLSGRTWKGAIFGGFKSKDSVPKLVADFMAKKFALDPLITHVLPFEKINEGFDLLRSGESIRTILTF
In words: Dissolved oxygen decrease on adding alcohol substrates to the cofactor regeneration system (NAD, HL-ADH, acetaldehyde, alcohol oxidase). The format is biochemical. The note with it: relative decrease in dissolved oxygen level upon addition of 0.1 mL of 2.5 vol % solution of the alcohol; phosphate buffer pH 8. As for the experimental part:
The following reagents were admixed in a small beaker: • 2.7 mL aerated potassium phosphate buffer (0.05 M; pH 8) • 0.01 mL of NAD solution (10 mg/mL or 0.025 M) • 0.5 mL horse liver-alcohol dehydrogenase solution (Sigma-1 mg/mL) • 0.1 mL of 1 M acetaldehyde • 0.1 mL of saturated alcohol oxidase (~ 10 mg/mL, prepared as described in example I)
A dissolved oxygen probe, connected to an electronic signal differentiator, was placed in the above prepared solution. The relative decrease in dissolved oxygen level (ADO) was monitored upon addition of 0.1 mL of 2.5 vol % solutions of several alcohols: […]
Turning to `OC=CCCO` [3-buten-1,4-diol], the ΔDO result was “Yes”.

For the compound `OCCCCO` [1,4-butanediol], the ΔDO entry was “Yes”.

Turning to `CC(C)(C)O` [tertiary butanol], the ΔDO entry is given as “No”.

Consider `OC1CCCCC1` [cyclohexanol], for which the ΔDO result was “Yes”.

As for `C=CCCCCCCCCO` [9-decen-1-ol], the ΔDO entry is given as “Yes”.

As to `CCC(C)O` (stereo not shown) [2-butanol], the ΔDO entry is “Yes”.

Consider `C=CC(C)O` (stereo not shown) [3-buten-2-ol], for which the ΔDO result was “Yes”.

Source of the values: patent publication EP0118750A2, “Regeneration of NAD(P) cofactor” (PHILLIPS PETROLEUM COMPANY, priority 1983, dated 1984).
